Earlier results on two compounds are cited in patent publication US11346820B2, “HPLC-PDA method and uses thereof in phytoestrogen measurement” (The Board Of Regents, The University of Texas System, priority 2019, dated 2022).

Where two headings read alike, the source gives them in different places.

For this data set the following is noted: nonrepresentative subset of adults, N=199, Valentin-Blasini, et al.

With `O=c1c(-c2ccc(O)cc2)coc2cc(O)cc(O)c12` [Genistein], the means recovered was 129 ng/mL. Besides, where the note is “units converted”, the means recovered was 0.477 µmol/L.
Take `Oc1ccc([C@H]2COc3cc(O)ccc3C2)cc1` (racemic) [Equol]: the means recovered was 36 ng/mL. Further, the means recovered (units converted) was 0.148 µmol/L.
